Reference: patent publication US12281121B2, “N-containing heteroaryl derivative and pharmaceutical composition comprising same as active ingredient for prevention or treatment of cancer” (VORONOI Inc., priority 2019, dated 2025)

Columns and labels:
Assay in all cases: ScanMAX Kinase analysis panel (DiscoverX)
Assay type in all cases: binding
Conditions in all cases: read-out: adjusted percentage (% control)
[1] = target: T1, ABL1(H396P)-phosphorylated (Homo sapiens, UniProt P00519, H396P)
T1 construct: purchased DiscoverX
Experimental: (§1) The following experiment was performed in order to evaluate the inhibitory activity of the compound according to the present invention against more enzymes. Specifically, for Examples 1 and 3 selected among the Example compounds of the present invention, the enzyme (kinase) selectivity was set to be measured by commissioning DiscoverX, and an experiment was conducted using a ScanMAX™ Kinase analysis panel. In this case, the concentration of the drug treated with the enzyme was set to 1 μM in DMSO, the adjusted percentage (% control) was determined in the same manner as in the following Equation 1, and the results are shown in the following Table 3. (Example compound−Positive control)/(Negative control−Positive control)×100 [Equation 1]
(§2) In addition, the enzyme selectivity of the present invention was determined to be active against the corresponding enzyme when the adjusted percentage was <35% (that is, less than 35%).

[2] = target: T2, ABL1(T315I)-nonphosphorylated (Homo sapiens, UniProt P00519, T315I)
T2 construct: purchased DiscoverX
Experimental: as §1, §2

[3] = target: T3, ABL1(T315I)-phosphorylated (Homo sapiens, UniProt P00519, T315I)
T3 construct: purchased DiscoverX
Experimental: as §1, §2

[4] = target: T4, ABL1(Y253F)-phosphorylated (Homo sapiens, UniProt P00519, Y253F)
T4 construct: purchased DiscoverX
Experimental: as §1, §2

[5] = target: T5, AMPK-alpha1 (Homo sapiens, UniProt Q13131)
T5 construct: purchased DiscoverX
Experimental: as §1, §2

[6] = target: T6, AURKC (Homo sapiens, UniProt Q9UQB9)
T6 construct: purchased DiscoverX
Experimental: as §1, §2

[7] = target: T7, AXL (Homo sapiens, UniProt P30530)
T7 construct: purchased DiscoverX
Experimental: as §1, §2

[8] = target: T8, BTK (Homo sapiens, UniProt Q06187)
T8 construct: purchased DiscoverX
Experimental: as §1, §2

[9] = target: T9, CSNK2A1 (Homo sapiens, UniProt P68400)
T9 construct: purchased DiscoverX
Experimental: as §1, §2

[10] = target: T10, CSNK2A2 (Homo sapiens, UniProt P19784)
T10 construct: purchased DiscoverX
Experimental: as §1, §2

[11] = target: T11, DAPK3 (Homo sapiens, UniProt O43293)
T11 construct: purchased DiscoverX
Experimental: as §1, §2

[12] = target: T12, DDR1 (Homo sapiens, UniProt Q08345)
T12 construct: purchased DiscoverX
Experimental: as §1, §2

[13] = target: T13, DLK (Homo sapiens, UniProt Q12852)
T13 construct: purchased DiscoverX
Experimental: as §1, §2

[14] = target: T14, EGFR(L747-E749del, A750P) (Homo sapiens, UniProt P00533, A750P/DEL747-749)
T14 construct: purchased DiscoverX
Experimental: as §1, §2

[15] = target: T15, EPHB6 (Homo sapiens, UniProt O15197)
T15 construct: purchased DiscoverX ScanMAX Kinase analysis panel
Experimental: as §1, §2

[16] = target: T16, FGR (Homo sapiens, UniProt P09769)
T16 construct: purchased DiscoverX ScanMAX Kinase analysis panel
Experimental: as §1, §2

[17] = target: T17, FLT3(D835V) (Homo sapiens, UniProt P36888, D835V)
T17 construct: purchased DiscoverX ScanMAX Kinase analysis panel
Experimental: as §1, §2

[18] = target: T18, FLT3(K663Q) (Homo sapiens, UniProt P36888, K663Q)
T18 construct: purchased DiscoverX ScanMAX Kinase analysis panel
Experimental: as §1, §2

[19] = target: T19, FLT3(N841I) (Homo sapiens, UniProt P36888, N841I)
T19 construct: purchased DiscoverX ScanMAX Kinase analysis panel
Experimental: as §1, §2

[20] = target: T20, FLT3(R834Q) (Homo sapiens, UniProt P36888, R834Q)
T20 construct: purchased DiscoverX ScanMAX Kinase analysis panel
Experimental: as §1, §2

[21] = target: T21, FLT3-autoinhibited (Homo sapiens, UniProt P36888)
T21 construct: purchased DiscoverX ScanMAX Kinase analysis panel
Experimental: as §1, §2

[22] = target: T22, HCK (Homo sapiens, UniProt P08631)
T22 construct: purchased DiscoverX ScanMAX Kinase analysis panel
Experimental: as §1, §2

[23] = target: T23, JAK2(JH1domain-catalytic) (Homo sapiens, UniProt O60674)
T23 construct: JAK2(JH1domain-catalytic); purchased DiscoverX ScanMAX Kinase analysis panel
Experimental: as §1, §2

[24] = target: T24, JAK3(JH1domain-catalytic) (Homo sapiens, UniProt P52333)
T24 construct: JAK3 (JH1domain-catalytic); purchased DiscoverX ScanMAX Kinase analysis panel
Experimental: as §1, §2

[25] = target: T25, KIT(D816V) (Homo sapiens, UniProt P10721, D816V)
T25 construct: purchased DiscoverX ScanMAX Kinase analysis panel
Experimental: as §1, §2

[26] = target: T26, LCK (Homo sapiens, UniProt P06239)
T26 construct: purchased DiscoverX ScanMAX Kinase analysis panel
Experimental: as §1, §2

[27] = target: T27, MERTK (Homo sapiens, UniProt Q12866)
T27 construct: purchased DiscoverX ScanMAX Kinase analysis panel
Experimental: as §1, §2

[28] = target: T28, PDGFRB (Homo sapiens, UniProt P09619)
T28 construct: purchased DiscoverX ScanMAX Kinase analysis panel
Experimental: as §1, §2

[29] = target: T29, RET (Homo sapiens, UniProt P07949)
T29 construct: purchased DiscoverX ScanMAX Kinase analysis panel
Experimental: as §1, §2

[30] = target: T30, RET(M918T) (Homo sapiens, UniProt P07949, M918T)
T30 construct: purchased DiscoverX ScanMAX Kinase analysis panel
Experimental: as §1, §2

[31] = target: T31, SRC (Homo sapiens, UniProt P12931)
T31 construct: purchased DiscoverX ScanMAX Kinase analysis panel
Experimental: as §1, §2

[32] = target: T32, SYK (Homo sapiens, UniProt P43405)
T32 construct: purchased DiscoverX ScanMAX Kinase analysis panel
Experimental: as §1, §2

[33] = target: T33, TRKB (Homo sapiens, UniProt Q16620)
T33 construct: purchased DiscoverX ScanMAX Kinase analysis panel
Experimental: as §1, §2

[34] = target: T34, TYK2(JH1domain-catalytic) (Homo sapiens, UniProt P29597)
T34 construct: TYK2(JH1domain-catalytic); purchased DiscoverX ScanMAX Kinase analysis panel
Experimental: as §1, §2

[35] = target: T35, YES (Homo sapiens, UniProt P07947)
T35 construct: purchased DiscoverX ScanMAX Kinase analysis panel
Experimental: as §1, §2

T24 sequence (P52333 822-1111 limits assumed): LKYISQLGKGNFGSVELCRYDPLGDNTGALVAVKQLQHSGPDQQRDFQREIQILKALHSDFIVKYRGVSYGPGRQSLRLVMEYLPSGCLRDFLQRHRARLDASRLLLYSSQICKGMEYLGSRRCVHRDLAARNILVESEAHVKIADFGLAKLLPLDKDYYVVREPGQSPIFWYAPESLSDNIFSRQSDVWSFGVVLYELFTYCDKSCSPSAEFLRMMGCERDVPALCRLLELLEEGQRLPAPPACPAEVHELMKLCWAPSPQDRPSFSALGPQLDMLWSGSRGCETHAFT
T13 sequence (Q12852 whole entry): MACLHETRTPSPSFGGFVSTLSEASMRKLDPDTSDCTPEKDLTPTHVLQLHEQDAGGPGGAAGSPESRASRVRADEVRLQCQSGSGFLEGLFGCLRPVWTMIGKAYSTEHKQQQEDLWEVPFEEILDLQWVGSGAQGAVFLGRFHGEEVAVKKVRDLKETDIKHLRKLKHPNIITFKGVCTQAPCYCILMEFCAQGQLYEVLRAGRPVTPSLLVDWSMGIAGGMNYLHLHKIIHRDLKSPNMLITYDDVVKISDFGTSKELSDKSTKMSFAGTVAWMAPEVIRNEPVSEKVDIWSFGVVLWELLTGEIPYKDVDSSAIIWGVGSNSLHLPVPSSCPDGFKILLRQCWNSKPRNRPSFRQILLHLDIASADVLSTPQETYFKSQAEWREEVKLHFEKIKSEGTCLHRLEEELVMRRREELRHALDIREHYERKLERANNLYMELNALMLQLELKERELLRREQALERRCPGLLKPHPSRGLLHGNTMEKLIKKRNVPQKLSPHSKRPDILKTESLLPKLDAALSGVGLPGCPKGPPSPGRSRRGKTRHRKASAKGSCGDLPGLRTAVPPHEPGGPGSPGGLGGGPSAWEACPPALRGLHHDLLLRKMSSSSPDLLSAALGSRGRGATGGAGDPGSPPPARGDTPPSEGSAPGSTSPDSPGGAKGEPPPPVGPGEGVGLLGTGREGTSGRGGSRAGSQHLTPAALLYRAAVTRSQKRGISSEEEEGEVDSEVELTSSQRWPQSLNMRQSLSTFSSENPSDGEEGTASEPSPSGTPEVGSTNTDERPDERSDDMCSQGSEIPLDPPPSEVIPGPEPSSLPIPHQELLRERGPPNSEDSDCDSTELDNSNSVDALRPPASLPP
T5 sequence (Q13131 whole entry): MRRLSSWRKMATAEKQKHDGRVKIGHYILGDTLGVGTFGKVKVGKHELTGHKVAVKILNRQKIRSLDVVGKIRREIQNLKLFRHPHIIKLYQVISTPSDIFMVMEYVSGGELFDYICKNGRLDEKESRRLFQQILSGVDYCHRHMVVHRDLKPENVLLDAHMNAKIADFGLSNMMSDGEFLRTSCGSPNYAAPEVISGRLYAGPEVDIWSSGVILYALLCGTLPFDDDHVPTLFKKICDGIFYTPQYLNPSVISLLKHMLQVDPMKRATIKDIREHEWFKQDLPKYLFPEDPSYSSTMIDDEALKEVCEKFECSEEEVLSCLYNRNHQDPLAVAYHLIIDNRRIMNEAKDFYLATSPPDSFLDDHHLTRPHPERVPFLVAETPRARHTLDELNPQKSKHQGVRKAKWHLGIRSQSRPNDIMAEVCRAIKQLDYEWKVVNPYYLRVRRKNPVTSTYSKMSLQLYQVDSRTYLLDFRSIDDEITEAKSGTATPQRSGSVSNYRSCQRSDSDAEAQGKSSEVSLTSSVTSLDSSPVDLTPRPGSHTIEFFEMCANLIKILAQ
T16 sequence (P09769 whole entry): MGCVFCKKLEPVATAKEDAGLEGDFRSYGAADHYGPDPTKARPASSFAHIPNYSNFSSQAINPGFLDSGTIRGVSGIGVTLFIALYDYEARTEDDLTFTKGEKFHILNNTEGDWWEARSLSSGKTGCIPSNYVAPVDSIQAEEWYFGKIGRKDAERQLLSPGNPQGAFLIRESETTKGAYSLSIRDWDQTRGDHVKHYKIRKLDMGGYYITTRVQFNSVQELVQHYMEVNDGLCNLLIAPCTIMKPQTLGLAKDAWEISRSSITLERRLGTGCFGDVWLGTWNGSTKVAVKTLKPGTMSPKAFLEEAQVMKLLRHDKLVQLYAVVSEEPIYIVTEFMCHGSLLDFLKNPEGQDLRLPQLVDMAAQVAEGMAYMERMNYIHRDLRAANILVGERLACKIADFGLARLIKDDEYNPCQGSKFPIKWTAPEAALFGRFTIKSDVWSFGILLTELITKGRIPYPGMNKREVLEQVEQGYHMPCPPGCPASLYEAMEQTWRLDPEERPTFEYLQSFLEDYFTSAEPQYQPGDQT
T6 sequence (Q9UQB9 whole entry): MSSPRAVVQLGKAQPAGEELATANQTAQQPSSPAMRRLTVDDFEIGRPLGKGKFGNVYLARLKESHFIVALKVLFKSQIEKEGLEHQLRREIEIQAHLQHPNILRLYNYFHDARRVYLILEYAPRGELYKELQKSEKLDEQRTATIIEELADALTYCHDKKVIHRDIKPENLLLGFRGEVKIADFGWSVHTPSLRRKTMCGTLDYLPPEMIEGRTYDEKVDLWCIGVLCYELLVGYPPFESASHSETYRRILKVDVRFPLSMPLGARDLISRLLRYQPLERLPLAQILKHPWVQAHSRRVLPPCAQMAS
T8 sequence (Q06187 whole entry): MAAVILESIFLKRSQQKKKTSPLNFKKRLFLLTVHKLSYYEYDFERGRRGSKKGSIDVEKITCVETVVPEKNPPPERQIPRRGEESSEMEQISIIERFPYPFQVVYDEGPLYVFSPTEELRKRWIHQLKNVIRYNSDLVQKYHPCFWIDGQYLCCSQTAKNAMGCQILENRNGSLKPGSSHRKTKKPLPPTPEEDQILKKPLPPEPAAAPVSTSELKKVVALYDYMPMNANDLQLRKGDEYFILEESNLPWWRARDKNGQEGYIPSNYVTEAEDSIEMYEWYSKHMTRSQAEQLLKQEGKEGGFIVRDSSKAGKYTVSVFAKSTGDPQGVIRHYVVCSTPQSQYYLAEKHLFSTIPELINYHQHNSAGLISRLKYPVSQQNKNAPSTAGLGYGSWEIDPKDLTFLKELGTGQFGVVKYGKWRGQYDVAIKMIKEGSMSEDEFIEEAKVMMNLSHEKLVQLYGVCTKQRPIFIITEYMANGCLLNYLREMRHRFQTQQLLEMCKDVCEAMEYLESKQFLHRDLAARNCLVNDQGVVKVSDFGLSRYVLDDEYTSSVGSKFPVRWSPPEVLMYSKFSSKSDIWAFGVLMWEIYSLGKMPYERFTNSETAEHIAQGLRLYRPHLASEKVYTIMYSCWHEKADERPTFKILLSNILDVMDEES
T30 sequence (P07949 29-1114 M918T): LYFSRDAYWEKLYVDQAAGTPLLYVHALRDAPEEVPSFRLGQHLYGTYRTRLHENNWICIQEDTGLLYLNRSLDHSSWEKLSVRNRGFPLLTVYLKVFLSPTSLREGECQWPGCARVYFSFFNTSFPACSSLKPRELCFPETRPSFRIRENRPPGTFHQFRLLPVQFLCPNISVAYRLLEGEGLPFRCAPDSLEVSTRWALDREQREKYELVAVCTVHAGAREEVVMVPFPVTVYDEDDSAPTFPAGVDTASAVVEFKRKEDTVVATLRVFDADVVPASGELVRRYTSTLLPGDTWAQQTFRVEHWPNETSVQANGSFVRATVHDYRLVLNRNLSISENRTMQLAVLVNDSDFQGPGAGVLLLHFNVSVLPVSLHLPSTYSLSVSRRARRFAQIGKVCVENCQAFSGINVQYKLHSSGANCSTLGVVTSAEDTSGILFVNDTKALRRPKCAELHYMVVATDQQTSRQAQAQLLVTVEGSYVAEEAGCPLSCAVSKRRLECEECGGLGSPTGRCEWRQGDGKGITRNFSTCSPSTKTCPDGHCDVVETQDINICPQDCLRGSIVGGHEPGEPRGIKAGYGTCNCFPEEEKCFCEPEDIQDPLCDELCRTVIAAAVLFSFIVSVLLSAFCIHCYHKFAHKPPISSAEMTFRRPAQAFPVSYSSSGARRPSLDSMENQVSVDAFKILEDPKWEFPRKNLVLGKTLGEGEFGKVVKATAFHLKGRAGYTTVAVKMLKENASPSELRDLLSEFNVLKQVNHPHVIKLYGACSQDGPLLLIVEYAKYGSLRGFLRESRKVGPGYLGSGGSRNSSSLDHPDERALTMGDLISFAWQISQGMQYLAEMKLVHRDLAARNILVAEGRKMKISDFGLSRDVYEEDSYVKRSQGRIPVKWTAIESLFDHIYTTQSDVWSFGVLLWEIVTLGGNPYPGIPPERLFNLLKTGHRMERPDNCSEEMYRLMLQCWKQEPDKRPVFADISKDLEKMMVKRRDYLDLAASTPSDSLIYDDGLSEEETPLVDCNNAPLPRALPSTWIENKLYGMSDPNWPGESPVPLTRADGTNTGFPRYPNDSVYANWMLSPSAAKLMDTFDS
T22 sequence (P08631 whole entry): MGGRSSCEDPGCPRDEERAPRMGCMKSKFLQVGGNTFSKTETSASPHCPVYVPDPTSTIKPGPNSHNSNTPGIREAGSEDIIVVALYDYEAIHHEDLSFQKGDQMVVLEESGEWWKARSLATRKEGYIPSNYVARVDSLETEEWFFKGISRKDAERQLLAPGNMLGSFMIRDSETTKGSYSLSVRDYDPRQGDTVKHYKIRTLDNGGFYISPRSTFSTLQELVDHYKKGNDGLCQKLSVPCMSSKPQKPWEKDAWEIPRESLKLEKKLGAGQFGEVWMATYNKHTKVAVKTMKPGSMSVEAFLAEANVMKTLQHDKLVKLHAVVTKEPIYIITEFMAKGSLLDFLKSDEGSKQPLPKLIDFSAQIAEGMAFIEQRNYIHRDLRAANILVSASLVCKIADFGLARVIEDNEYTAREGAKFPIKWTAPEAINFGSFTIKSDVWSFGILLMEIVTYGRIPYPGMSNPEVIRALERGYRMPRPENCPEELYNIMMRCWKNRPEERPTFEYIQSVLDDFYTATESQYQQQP
T29 sequence (P07949 29-1114): as the sequence (P07949 29-1114 M918T) above, with T890M counted along it

COc1ccc(CN2C3CC2CN(c2ccc(-c4nc(Nc5cc(C)[nH]n5)c5ccccc5n4)cn2)C3)cn1 [Example 3, 2-(6-(6-((6-methoxypyridin-3-yl)methyl)-3,6-diazabicyclo [3.1.1]heptan-3-yl)pyridin-3-yl)-N-(5-methyl-1H-pyrazol-3-yl)quinazolin-4-amine] was tested. Which remaining binding at 1 µM [1] did it give?
Its remaining binding at 1 µM is 21%.

And the remaining binding at 1 µM [2]?
The remaining binding at 1 µM was 2.9%.

And the remaining binding at 1 µM [3]?
Its remaining binding at 1 µM is 3.2%.

What about the remaining binding at 1 µM [4] of the same compound?
The remaining binding at 1 µM was 21%.

What about the remaining binding at 1 µM [5] of the same compound?
Its remaining binding at 1 µM is 33%.

And the remaining binding at 1 µM [6]?
Its remaining binding at 1 µM is 21%.

And the remaining binding at 1 µM [7]?
Its remaining binding at 1 µM is 0%.

And the remaining binding at 1 µM [8]?
The remaining binding at 1 µM was 16%.

And the remaining binding at 1 µM [9]?
The remaining binding at 1 µM was 1.5%.

And the remaining binding at 1 µM [10]?
Its remaining binding at 1 µM is 0.3%.

What about the remaining binding at 1 µM [11] of the same compound?
The remaining binding at 1 µM was 34%.

And the remaining binding at 1 µM [12]?
Its remaining binding at 1 µM is 12%.

And the remaining binding at 1 µM [13]?
The remaining binding at 1 µM was 19%.

What about the remaining binding at 1 µM [14] of the same compound?
Its remaining binding at 1 µM is 17%.

What about the remaining binding at 1 µM [15] of the same compound?
Its remaining binding at 1 µM is 4.8%.

And the remaining binding at 1 µM [16]?
The remaining binding at 1 µM was 8.4%.

What about the remaining binding at 1 µM [17] of the same compound?
Its remaining binding at 1 µM is 0%.

What about the remaining binding at 1 µM [18] of the same compound?
Its remaining binding at 1 µM is 0.1%.

And the remaining binding at 1 µM [19]?
Its remaining binding at 1 µM is 0%.

And the remaining binding at 1 µM [20]?
The remaining binding at 1 µM was 9.1%.

What about the remaining binding at 1 µM [21] of the same compound?
Its remaining binding at 1 µM is 11%.

And the remaining binding at 1 µM [22]?
Its remaining binding at 1 µM is 3.2%.

What about the remaining binding at 1 µM [23] of the same compound?
Its remaining binding at 1 µM is 0%.

And the remaining binding at 1 µM [24]?
The remaining binding at 1 µM was 1.9%.

What about the remaining binding at 1 µM [25] of the same compound?
The remaining binding at 1 µM was 6.5%.

And the remaining binding at 1 µM [26]?
Its remaining binding at 1 µM is 1.8%.

What about the remaining binding at 1 µM [27] of the same compound?
The remaining binding at 1 µM was 6.2%.

And the remaining binding at 1 µM [28]?
Its remaining binding at 1 µM is 2.7%.

And the remaining binding at 1 µM [29]?
The remaining binding at 1 µM was 0%.

What about the remaining binding at 1 µM [30] of the same compound?
The remaining binding at 1 µM was 0.25%.

And the remaining binding at 1 µM [31]?
Its remaining binding at 1 µM is 0%.

What about the remaining binding at 1 µM [32] of the same compound?
The remaining binding at 1 µM was 2.2%.

What about the remaining binding at 1 µM [33] of the same compound?
Its remaining binding at 1 µM is 2.1%.

What about the remaining binding at 1 µM [34] of the same compound?
Its remaining binding at 1 µM is 5.3%.

And the remaining binding at 1 µM [35]?
The remaining binding at 1 µM was 3.8%.

For COc1ccc(CN2C3CC2CN(c2ccc(-c4nc(Nc5cc(C)[nH]n5)c5occc5n4)cn2)C3)cn1 [Example 1, 2-(6-(6-((6-methoxypyridin-3-yl)methyl)-3,6-diazabicyclo[3.1.1]heptan-3-yl)pyridin-3-yl)-N-(5-methyl-1H-pyrazol-3-yl)furo[3,2-d]pyrimidin-4-amine], which remaining binding at 1 µM [1] is on record?
The remaining binding at 1 µM was 28%.

And the remaining binding at 1 µM [2]?
The remaining binding at 1 µM was 20%.

What about the remaining binding at 1 µM [3] of the same compound?
Its remaining binding at 1 µM is 19%.

And the remaining binding at 1 µM [4]?
Its remaining binding at 1 µM is 20%.

And the remaining binding at 1 µM [5]?
Its remaining binding at 1 µM is 26%.

And the remaining binding at 1 µM [6]?
The remaining binding at 1 µM was 15%.

And the remaining binding at 1 µM [7]?
The remaining binding at 1 µM was 1.2%.

What about the remaining binding at 1 µM [8] of the same compound?
Its remaining binding at 1 µM is 17%.

And the remaining binding at 1 µM [9]?
The remaining binding at 1 µM was 2.4%.

What about the remaining binding at 1 µM [10] of the same compound?
The remaining binding at 1 µM was 0%.

And the remaining binding at 1 µM [11]?
The remaining binding at 1 µM was 19%.

And the remaining binding at 1 µM [12]?
The remaining binding at 1 µM was 25%.

What about the remaining binding at 1 µM [13] of the same compound?
Its remaining binding at 1 µM is 29%.

What about the remaining binding at 1 µM [14] of the same compound?
Its remaining binding at 1 µM is 16%.

What about the remaining binding at 1 µM [15] of the same compound?
The remaining binding at 1 µM was 2.6%.

And the remaining binding at 1 µM [16]?
The remaining binding at 1 µM was 12%.

And the remaining binding at 1 µM [17]?
The remaining binding at 1 µM was 1.3%.

And the remaining binding at 1 µM [18]?
The remaining binding at 1 µM was 2.2%.

What about the remaining binding at 1 µM [19] of the same compound?
Its remaining binding at 1 µM is 0%.

What about the remaining binding at 1 µM [20] of the same compound?
Its remaining binding at 1 µM is 23%.

What about the remaining binding at 1 µM [21] of the same compound?
Its remaining binding at 1 µM is 9.8%.

And the remaining binding at 1 µM [22]?
Its remaining binding at 1 µM is 4.1%.

What about the remaining binding at 1 µM [23] of the same compound?
Its remaining binding at 1 µM is 0.1%.

And the remaining binding at 1 µM [24]?
The remaining binding at 1 µM was 0.55%.

And the remaining binding at 1 µM [25]?
Its remaining binding at 1 µM is 32%.

And the remaining binding at 1 µM [26]?
The remaining binding at 1 µM was 2.5%.

And the remaining binding at 1 µM [27]?
The remaining binding at 1 µM was 34%.

And the remaining binding at 1 µM [28]?
The remaining binding at 1 µM was 15%.

And the remaining binding at 1 µM [29]?
Its remaining binding at 1 µM is 0%.

What about the remaining binding at 1 µM [30] of the same compound?
Its remaining binding at 1 µM is 0.9%.

And the remaining binding at 1 µM [31]?
Its remaining binding at 1 µM is 0.7%.

What about the remaining binding at 1 µM [32] of the same compound?
Its remaining binding at 1 µM is 3.1%.

And the remaining binding at 1 µM [33]?
Its remaining binding at 1 µM is 1.6%.

And the remaining binding at 1 µM [34]?
The remaining binding at 1 µM was 0.2%.

And the remaining binding at 1 µM [35]?
Its remaining binding at 1 µM is 11%.
